Laboratory results published in patent US5223526A, “Pyrazole carboxanilide fungicides and use” (Monsanto Company, priority 1992, dated 1993).

How the values were obtained:
[1] = tested on: Rhizoctonia solani; assay: Rice sheath blight; type: in vivo; design: scale not given here; conditions: inoculated two days later, rated after 7 days, average of five plants; for Disease Control Rating at 0.5 mg/mL: foliage and soil sprayed with 0.5 mg/mL; for Disease Control Rating at 0.02 mg/mL: foliage and soil sprayed with 0.02 mg/mL; for Disease Control Rating at 0.1 mg/mL: foliage and soil sprayed with 0.1 mg/mL
In short: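 Preventive test: R. solani inoculum on rice grain was applied at the plant base two days after spraying foliage and soil with Compound A (0.5, 0.1 or 0.02 mg/mL, water/acetone/Tween 20). Plants aged 11–15 days stood in flood trays; after 7 days at 25 °C and high humidity, disease control was rated against untreated plants, five plants averaged.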

[2] = tested on: Botrytis cinerea; assay: Eggplant grey mold; type: in vivo; design: scale not given here; conditions: inoculated 24 h later, rated after 3-4 days; for Disease Control Rating at 500 ppm: eggplant sprayed with 500 ppm; for Disease Control Rating at 20 ppm: eggplant sprayed with 20 ppm; for Disease Control Rating at 100 ppm: eggplant sprayed with 100 ppm
In short: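 Protective test: compound formulations (2:3 acetone:water, 0.5% Tween 20; 500, 100 or 20 ppm) sprayed on 14-18-day-old plants, with spore inoculum (4×10^6 spore/mL) applied a day later. Disease control rated on Botrytis lesions after 3-4 days at 23 °C and 100% humidity.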

[3] = tested on: Botrytis cinerea; assay: Vine grey mold (grape berries); type: in vivo; conditions: average of six berries, 7-10 days; for pest or weed control at 50 ppm: grape berries treated with 50 ppm, read-out: % DISEASE CONTROL 50 ppm; for pest or weed control at 200 ppm: grape berries treated with 200 ppm, read-out: % DISEASE CONTROL 200 ppm
In short: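 Preventive berry test: compound at 50 or 200 ppm (acetone/water, 0.05% Tween 20) applied one day before inoculation with 10^6 spores/mL Botrytis conidia. After 7-10 days at 20 °C under 12 h light, infected surface area rated; disease control expressed as percent reduction from control mean; repeated-test values averaged.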

[4] = target: T1, succinate dehydrogenase (Botrytis cinerea, UniProt A0A384J5E4+A0A384J8V8+A0A384JHJ5); assay: Enzyme inhibition: succinate dehydrogenase activity in Botrytis cinerea mitochondria (DCPIP reduction); type: biochemical; conditions: concentration required to inhibit the rate of DCPIP reduction by 50%; Botrytis cinerea isolate Nick mitochondria; read-out: I50 (μM conc.)
T1 construct: succinate-DCPIP reductase assay with KCN
T1 sequence (A0A384J5E4 1-300): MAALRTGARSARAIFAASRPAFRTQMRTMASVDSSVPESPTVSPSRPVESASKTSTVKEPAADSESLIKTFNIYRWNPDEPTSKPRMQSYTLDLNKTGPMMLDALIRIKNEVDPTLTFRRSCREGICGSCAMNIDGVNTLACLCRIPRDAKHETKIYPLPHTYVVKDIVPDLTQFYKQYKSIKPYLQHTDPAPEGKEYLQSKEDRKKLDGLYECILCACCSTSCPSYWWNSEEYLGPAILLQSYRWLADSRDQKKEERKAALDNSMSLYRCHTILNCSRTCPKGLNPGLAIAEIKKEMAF
T1 sequence (A0A384J8V8 1-189): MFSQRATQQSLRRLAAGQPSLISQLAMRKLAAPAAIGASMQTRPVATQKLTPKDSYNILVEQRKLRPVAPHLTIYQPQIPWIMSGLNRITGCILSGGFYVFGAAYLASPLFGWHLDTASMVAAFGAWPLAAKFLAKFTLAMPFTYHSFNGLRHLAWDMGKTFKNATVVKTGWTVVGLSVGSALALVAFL
T1 sequence (A0A384JHJ5 1-192): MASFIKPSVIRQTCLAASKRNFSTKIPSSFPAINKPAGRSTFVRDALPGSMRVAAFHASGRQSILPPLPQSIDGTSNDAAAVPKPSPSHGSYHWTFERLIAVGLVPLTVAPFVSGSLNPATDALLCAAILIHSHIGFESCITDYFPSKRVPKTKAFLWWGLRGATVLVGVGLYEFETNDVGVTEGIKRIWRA
T1 sequence (A0A384K456 1-647 partner): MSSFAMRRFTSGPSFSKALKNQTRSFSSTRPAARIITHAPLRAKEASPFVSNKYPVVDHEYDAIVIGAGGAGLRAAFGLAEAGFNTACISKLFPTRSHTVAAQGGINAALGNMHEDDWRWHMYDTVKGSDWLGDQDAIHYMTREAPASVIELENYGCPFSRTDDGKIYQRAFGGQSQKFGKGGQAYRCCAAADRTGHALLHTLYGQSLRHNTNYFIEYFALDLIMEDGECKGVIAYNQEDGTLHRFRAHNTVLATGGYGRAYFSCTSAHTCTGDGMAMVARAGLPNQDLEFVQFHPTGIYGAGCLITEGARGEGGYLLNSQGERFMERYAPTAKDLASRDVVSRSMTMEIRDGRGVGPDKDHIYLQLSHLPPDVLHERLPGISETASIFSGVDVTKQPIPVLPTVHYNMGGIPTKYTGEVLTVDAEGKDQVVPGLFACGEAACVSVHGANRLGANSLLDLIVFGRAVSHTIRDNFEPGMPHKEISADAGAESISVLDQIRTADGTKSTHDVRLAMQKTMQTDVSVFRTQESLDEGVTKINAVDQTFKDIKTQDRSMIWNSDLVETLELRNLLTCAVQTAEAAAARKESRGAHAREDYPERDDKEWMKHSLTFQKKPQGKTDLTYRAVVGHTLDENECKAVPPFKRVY
In short: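 DCPIP (45 μM) reduction at 600 nm tracked with 17 mM succinate, 1 mM KCN and 50 mM potassium phosphate, pH 7.2. Compounds were added in acetone (final 1% v/v), and Botrytis cinerea isolate Nick mitochondrial fraction initiated the reaction. Rates minus endogenous activity gave percentage inhibition, plotted semilog against concentration to derive I50 (μM).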

| SMILES | Disease Control Rating at 0.5 mg/mL [1] | Disease Control Rating at 500 ppm [2] | pest or weed control at 50 ppm [3] [%] | pest or weed control at 200 ppm [3] [%] | IC50 [4] [µM] | Disease Control Rating at 20 ppm [2] | Disease Control Rating at 100 ppm [2] | Disease Control Rating at 0.02 mg/mL [1] | Disease Control Rating at 0.1 mg/mL [1] |
| --- | --- | --- | --- | --- | --- | --- | --- | --- | --- |
| Cn1cc(C(=O)Nc2cc(F)ccc2C2CCCCC2)c(C(F)F)n1 [Example 16, 1H-pyrazole-4-carboxamide, N-(2-cyclohexyl-5-fluorophenyl)-3-(difluoromethyl)-1-methyl-] | 1 | 1 | 15 | 57 | 0.024 |  |  |  |  |
| Cn1cc(C(=O)Nc2cccc(F)c2C2CCCCC2)c(C(F)F)n1 [Example 17, 1H-pyrazole-4-carboxamide, N-(2-cyclohexyl-3-fluorophenyl)-3-(difluoromethyl)-1-methyl-] | 3 | 2 | 90 | 95 | 0.0063 | 1 | 2 |  |  |
| Cc1ccc(C2CCCCC2)c(NC(=O)c2cn(C)nc2C(F)(F)F)c1 [Example 18, 1H-pyrazole-4-carboxamide, N-(2-cyclohexyl-5-methylphenyl)-1-methyl-3-(trifluoromethyl)-] | 0 | 0 | 0 | 0 | 0.031 |  |  |  |  |
| Cc1cccc(NC(=O)c2cn(C)nc2C(F)(F)F)c1C1CCCCC1 [Example 19, 1H-pyrazole-4-carboxamide, N-(2-cyclohexyl-3-methylphenyl)-1-methyl-3-(trifluoromethyl)-] | 3 | 3 | 32 | 52 | 0.028 | 1 | 2 | 1 | 3 |
| Cc1cccc(NC(=O)c2cn(C)nc2C(F)F)c1C1CCCCC1 [Example 20, 1H-pyrazole-4-carboxamide, N-(2-cyclohexyl-3-methylphenyl)-3-(difluoromethyl)-1-methyl-] | 3 | 3 | 78 | 81 | 0.014 | 1 | 2 | 2 | 3 |
| Cc1ccc(C2CCCCC2)c(NC(=O)c2cn(C)nc2C(F)F)c1 [Example 21, 1H-pyrazole-4-carboxamide, N-(2-cyclohexyl-5-methylphenyl)-3-(difluoromethyl)-1-methyl-] | 1 | 2 | 40 | 34 | 0.019 | 1 | 2 |  |  |
| Cn1cc(C(=O)Nc2ccccc2OC2CCCCC2)c(C(F)F)n1 [Example 22, 1H-pyrazole-4-carboxamide, N-[2-(cyclohexyloxy)phenyl]-3-(difluoromethyl)-1-methyl-] | 0 | 0 | 24 | 22 | 0.0071 |  |  |  |  |
| Cn1cc(C(=O)Nc2ccccc2OC2CCCCC2)c(C(F)(F)F)n1 [Example 23, 1H-pyrazole-4-carboxamide, N-[2-(cyclohexyloxy)phenyl]-1-methyl-3-(trifluoromethyl)-] | 3 | 0 | 20 | 66 | 0.01 |  |  | 1 | 2 |
| Cn1cc(C(=O)Nc2ccccc2C2CCCCCCC2)c(C(F)F)n1 [Example 24, 1H-pyrazole-4-carboxamide, N-(2-cyclooctylphenyl)-3-(difluoromethyl)-1-methyl-] | 3 | 2 | 87 | 100 | 0.0012 | 1 | 2 | 3 | 3 |
| Cn1cc(C(=O)Nc2ccccc2C2CCCCCCC2)c(C(F)(F)F)n1 [Example 25, 1H-pyrazole-4-carboxamide, N-(2-cyclooctylphenyl)-1-methyl-3-(trifluoromethyl)-] | 1 | 2 | 66 | 78 | 0.0011 | 1 | 2 |  |  |
| Cc1ccc(NC(=O)c2cn(C)nc2C(F)F)c(C2CCCCC2)c1 [Example 28, 1H-pyrazole-4-carboxamide, N-(2-cyclohexyl-4-methylphenyl)-3-(difluoromethyl)-1-methyl-] | 0 | 2 | 37 | 77 | 0.01 | 0 | 1 |  |  |
| Cc1ccc(NC(=O)c2cn(C)nc2C(F)(F)F)c(C2CCCCC2)c1 [Example 29, 1H-pyrazole-4-carboxamide, N-(2-cyclohexyl-4-methylphenyl)-1-methyl-3-(trifluoromethyl)-] | 0 | 0 | 0 | 54 | 0.036 |  |  |  |  |
| Cc1nn(C)c(C)c1C(=O)Nc1ccccc1C1CCCCC1 [Example 30, 1H-pyrazole-4-carboxamide, N-(2-cyclohexylphenyl)-1,3,5-trimethyl-] | 3 | 2 | 75 | 59 | 0.34 | 0 | 2 | 2 | 3 |
| Cc1cc(C)c(C2CCCC2)c(NC(=O)c2cn(C)nc2C(F)(F)F)c1 [Example 31, 1H-pyrazole-4-carboxamide, N-(2-cyclopentyl-3,5-dimethylphenyl)-1-methyl-3-(trifluoromethyl)-] | 1 | 0 | 0 | 23 | 0.068 | 0 | 0 |  |  |
| COc1ccc(C2CCCCC2)c(NC(=O)c2cn(C)nc2C(F)(F)F)c1 [Example 32, 1H-pyrazole-4-carboxamide, N-(2-cyclohexyl-5-methoxyphenyl)-1-methyl-3-(trifluoromethyl)-] | 0 | 2 | 6 | 5 | 0.11 | 0 | 1 |  |  |
| CC(=C1CCCC1)c1ccccc1NC(=O)c1cn(C)nc1C(F)(F)F [Example 33, 1H-pyrazole-4-carboxamide, N-[2-(1-cyclopentylideneethyl)phenyl]-1-methyl-3-(trifluoromethyl)-] | 3 | 2 | 34 | 41 | 0.0014 | 1 | 1 | 1 | 1 |
| C=C(c1ccccc1NC(=O)c1cn(C)nc1C(F)(F)F)C1CCCC1 [Example 34, 1H-pyrazole-4-carboxamide, N-[2-(1-cyclopentylethenyl)phenyl]-1-methyl-3-(trifluoromethyl)-] | 3 | 2 | 44 | 11 | 0.0059 | 0 | 2 | 2 | 3 |
| Cn1cc(C(=O)Nc2ccccc2OC2(C)CCCC2)c(C(F)F)n1 [Example 35, 1H-pyrazole-4-carboxamide, 3-(difluoromethyl)-1-methyl-N-[2-(1-methylcyclopentyloxy)phenyl]-] | 3 | 3 | 42 | 46 | 0.012 | 2 | 3 | 2 | 3 |
